Test results reported in BindingDB's records for doi:10.1016/s0960-894x(00)00113-x (Kyoto University, 2000).

Assay: The compound was tested for its inhibitory activity against platelet aggregation

| IC50 [nM] | Compound |
| --- | --- |
| 24 | CC[C@@H](NC(=O)c1ccc(C(=N)N2CCC(O)CC2)cc1F)C(C)(C)C(=O)N1CCC(CC(=O)O)CC1 |
| 76 | CC(C)[C@@H](NC(=O)c1ccc(C(=N)N)cc1)C(C)(C)C(=O)N1CCC(CC(=O)O)CC1 |
| 708000 | C[C@H](NC(=O)c1ccc(CNC(=N)N)cc1)C(=O)N1CCC(C(=O)O)CC1 |
| 794 | CCCCCCOC(/C=C/c1ccc(C(=N)N)cc1)C(C)(C)C(=O)N1CCC(CC(=O)O)CC1 (stereo unspecified) |
| 110000 | C[C@H](NC(=O)c1ccc(C(=N)N)cc1)C(=O)N1CCC(C(=O)O)CC1 |
| 191 | CC(C)(C(=O)N1CCC(CC(=O)O)CC1)[C@H](NC(=O)c1ccc(C(=N)N)cc1)c1ccc2ccccc2c1 |
| 1900 | N=C(N)c1ccc(C(=O)N[C@@H](CC(=O)N2CCC(CC(=O)O)CC2)C(=O)OC2CCCCC2)cc1 |
| 38 | CC(C)(C(=O)N1CCC(CC(=O)O)CC1)[C@H](NC(=O)c1ccc(C(=N)N)cc1)c1cccc(O)c1 |
| 43 | CC[C@@H](NC(=O)c1ccc(C(=N)N)cc1)C(C)(C)C(=O)N1CCC(CC(=O)O)CC1 |
| 3470 | CC(C)(C(=O)/C=C/c1ccc(C(=N)N)cc1)C(=O)N1CCC(CC(=O)O)CC1 |
| 31 | CC[C@@H](NC(=O)c1ccc(C(=N)N)cc1F)C(C)(C)C(=O)N1CCC(CC(=O)O)CC1 |
| 501 | CCCCNC(=N)c1ccc(C(=O)N[C@H](CC)C(C)(C)C(=O)N2CCC(CC(=O)O)CC2)c(F)c1 |
| 126 | COC(/C=C/c1ccc(C(=N)N)cc1)C(C)(C)C(=O)N1CCC(CC(=O)O)CC1 (stereo unspecified) |
| 45 | CC[C@@H](NC(=O)c1ccc(C(=N)N2CCCC2)cc1F)C(C)(C)C(=O)N1CCC(CC(=O)O)CC1 |
| 38 | C[C@@H](NC(=O)c1ccc(C(=N)N)cc1F)C(C)(C)C(=O)N1CCC(CC(=O)O)CC1 |
| 4070 | N=C(N)c1ccc(C(=O)N[C@@H](CC(=O)N2CCC(CC(=O)O)CC2)C(=O)Oc2ccccc2)cc1 |
| 129 | CCOC(/C=C/c1ccc(C(=N)N)cc1)C(C)(C)C(=O)N1CCC(CC(=O)O)CC1 (stereo unspecified) |
| 37 | CCCC[C@@H](NC(=O)c1ccc(C(=N)N)cc1F)C(C)(C)C(=O)N1CCC(CC(=O)O)CC1 |
| 110 | CC(C)(C(=O)N1CCC(CC(=O)O)CC1)[C@H](NC(=O)c1ccc(C(=N)N)cc1)c1ccc(O)cc1 |

| IC50 [nM] | Compound |
| --- | --- |
| 135 | C=CCOC(/C=C/c1ccc(C(=N)N)cc1)C(C)(C)C(=O)N1CCC(CC(=O)O)CC1 (stereo unspecified) |
| 36 | CC[C@@H](NC(=O)c1ccc(C(=N)N2CCN(C)CC2)cc1F)C(C)(C)C(=O)N1CCC(CC(=O)O)CC1 |
| 52500 | CN(CC(=O)N1CCC(C(=O)O)CC1)C(=O)c1ccc(CNC(=N)N)cc1 |
| 126 | CC(C)(C(=O)N1CCC(CC(=O)O)CC1)[C@H](NC(=O)c1ccc(C(=N)N)cc1)c1cccc(Cl)c1 |
| 631 | CC(C)(CCC(=O)c1ccc(C(=N)N)cc1)C(=O)N1CCC(CC(=O)O)CC1 |
| 79 | CC[C@@H](NC(=O)c1ccc(C(=N)N2CCOCC2)cc1F)C(C)(C)C(=O)N1CCC(CC(=O)O)CC1 |
| 115 | CC(C)(C(=O)N1CCC(CC(=O)O)CC1)[C@H](NC(=O)c1ccc(C(=N)N)cc1)c1ccccc1 |
| 331 | CC(C)(C(=O)N1CCC(CC(=O)O)CC1)[C@H](NC(=O)c1ccc(C(=N)N)cc1)c1ccc(Cl)cc1 |
| 41 | CC(C)C[C@@H](NC(=O)c1ccc(C(=N)N)cc1)C(C)(C)C(=O)N1CCC(CC(=O)O)CC1 |
| 7590 | CN(CC(=O)N1CCC(CC(=O)O)CC1)C(=O)c1ccc(C(=N)N)cc1 |
| 30200 | C[C@H](NC(=O)c1ccc(C(=N)N)cc1)C(=O)N1CCC(CC(=O)O)CC1 |
| 759000 | CN(CC(=O)N1CCC(CC(=O)O)CC1)C(=O)c1ccc(N=C(N)N)cc1 |
| 41 | CCCC[C@@H](NC(=O)c1ccc(C(=N)N)cc1)C(C)(C)C(=O)N1CCC(CC(=O)O)CC1 |
| 5010 | C[C@@H](CC(=O)N1CCC(CC(=O)O)CC1)NC(=O)c1ccc(C(=N)N)cc1 |
| 708 | C#CCN(C(=O)c1ccc(C(=N)N)cc1)[C@H](CCCC)C(C)(C)C(=O)N1CCC(CC(=O)O)CC1 |
| 41 | CCC[C@@H](NC(=O)c1ccc(C(=N)N)cc1)C(C)(C)C(=O)N1CCC(CC(=O)O)CC1 |
| 759000 | NC(N)=Nc1ccc(C(=O)NCCC(=O)N2CCC(C(=O)O)CC2)cc1 |
| 100000 | CN(CC(=O)N1CCC(C(=O)O)CC1)C(=O)c1ccc(N=C(N)N)cc1 |
| 33100 | N=C(N)c1ccc(C(=O)NCCC(=O)N2CCC(C(=O)O)CC2)cc1 |

| IC50 [nM] | Compound |
| --- | --- |
| 9120 | CC(C)[C@@H](CC(=O)N1CCC(CC(=O)O)CC1)NC(=O)c1ccc(C(=N)N)cc1 |
| 22 | CC[C@@H](NC(=O)c1ccc(C(=N)N2CCSC2)cc1F)C(C)(C)C(=O)N1CCC(CC(=O)O)CC1 |
| 151 | CN(C(=O)c1ccc(C(=N)N)cc1)[C@H](c1ccccc1)C(C)(C)C(=O)N1CCC(CC(=O)O)CC1 |
| 5250 | N=C(N)c1ccc(C(=O)N[C@H](CC(=O)N2CCC(CC(=O)O)CC2)c2ccccc2)cc1 |
| 85 | C/C=C/[C@@H](NC(=O)c1ccc(C(=N)N)cc1)C(C)(C)C(=O)N1CCC(CC(=O)O)CC1 |
| 79 | CCCCC[C@@H](NC(=O)c1ccc(C(=N)N)cc1)C(C)(C)C(=O)N1CCC(CC(=O)O)CC1 |
| 302 | CC(C)(C(=O)N1CCC(CC(=O)O)CC1)C(O)/C=C/c1ccc(C(=N)N)cc1 (stereo unspecified) |
| 79 | CC(C)(C(=O)N1CCC(CC(=O)O)CC1)[C@@H](CCc1ccccc1)NC(=O)c1ccc(C(=N)N)cc1 |
| 40 | CC[C@@H](NC(=O)c1ccc(C(=N)N2CCN(c3ccc(F)cc3)CC2)cc1F)C(C)(C)C(=O)N1CCC(CC(=O)O)CC1 |
| 18200 | N=C(N)c1ccc(C(=O)NCCC(=O)N2CCC(COC(=O)O)CC2)cc1 |
| 331000 | COC(=O)C1CCN(C(=O)CN(C)C(=O)c2ccc(C(=N)N)cc2)CC1 |
| 363 | CC(C)(C(=O)N1CCC(CC(=O)O)CC1)C(/C=C/c1ccc(C(=N)N)cc1)OCc1ccccc1 (stereo unspecified) |
| 6460 | CN(CCC(=O)N1CCC(CC(=O)O)CC1)C(=O)c1ccc(C(=N)N)cc1 |
| 240 | COC(CCc1ccc(C(=N)N)cc1)C(C)(C)C(=O)N1CCC(CC(=O)O)CC1 (stereo unspecified) |
| 41 | C[C@@H](NC(=O)c1ccc(C(=N)N)cc1)C(C)(C)C(=O)N1CCC(CC(=O)O)CC1 |
| 186 | CC(C)(C(=O)N1CCC(CC(=O)O)CC1)[C@H](NC(=O)c1ccc(C(=N)N)cc1Cl)c1ccccc1 |
| 575 | CC(C)(CNC(=O)c1ccc(C(=N)N)cc1)C(=O)N1CCC(CC(=O)O)CC1 [{1-[3-(4-Carbamimidoyl-benzoylamino)-2,2-dimethyl-propionyl]-piperidin-4-yl}-acetic acid] |
| 209 | CC(C)(/C=C/C(=O)c1ccc(C(=N)N)cc1)C(=O)N1CCC(CC(=O)O)CC1 [{1-[(E)-5-(4-Carbamimidoyl-phenyl)-2,2-dimethyl-5-oxo-pent-3-enoyl]-piperidin-4-yl}-acetic acid] |
